Results from publication PMC5290327, “SC83288 is a clinical development candidate for the treatment of severe malaria” (Nature Communications, 2017).

Columns and labels:
FLT3(K663Q) = target: T1, FLT3(K663Q) (Homo sapiens, UniProt P36888, K663Q); experiment: KINOMEscan; type: binding; conditions: read-out: Remaining enzyme activity
T1 construct: purchased Ambit (DiscoverX) KINOMEscan; Cerep
Method: (§1) The KINOMEscan was carried out by Ambit (San Diego, USA) according to a previously established protocol. The experiment was based on a competition binding assay that quantitatively measures the ability of a compound to compete with an immobilized, active-site directed ligand. The assay is performed by combining three components: DNA-tagged kinase; immobilized ligand; and a test compound. The ability of the test compound to compete with the immobilized ligand is measured via quantitative PCR of the DNA tag.
(§2) For most assays, kinase-tagged T7 phage strains were grown in parallel in 24-well blocks in an Escherichia coli host derived from the BL21 strain. E. coli were grown to log-phase and infected with T7 phage from a frozen stock and incubated with shaking at 32 °C until lysis (90–150 min). The lysates were centrifuged (6,000g) and filtered (0.2 μm) to remove cell debris. The remaining kinases were produced in HEK-293 cells (Sigma Aldrich, catalogue number: 85120602) and subsequently tagged with DNA for quantitative PCR detection. […] The liganded beads were blocked with excess biotin and washed with blocking buffer (SeaBlock (Pierce), 1% bovine serum albumin, 0.05% Tween 20 and 1 mM dithiothreitol) to remove unbound ligand and to reduce non-specific phage binding. […] SC81458 was prepared as 40x stock in 100% DMSO and directly diluted into the assay to a final concentration of 10 μM. All reactions were performed in polypropylene 384-well plates in a final volume of 0.04 ml. […] The kinase concentration in the eluates was measured by quantitative PCR.

EGFR = target: T2, EGFR (Homo sapiens, UniProt P00533); experiment: KINOMEscan; type: binding; conditions: read-out: Remaining enzyme activity
T2 construct: purchased Ambit (DiscoverX) KINOMEscan; Cerep
T2 sequence (P00533 25-1210): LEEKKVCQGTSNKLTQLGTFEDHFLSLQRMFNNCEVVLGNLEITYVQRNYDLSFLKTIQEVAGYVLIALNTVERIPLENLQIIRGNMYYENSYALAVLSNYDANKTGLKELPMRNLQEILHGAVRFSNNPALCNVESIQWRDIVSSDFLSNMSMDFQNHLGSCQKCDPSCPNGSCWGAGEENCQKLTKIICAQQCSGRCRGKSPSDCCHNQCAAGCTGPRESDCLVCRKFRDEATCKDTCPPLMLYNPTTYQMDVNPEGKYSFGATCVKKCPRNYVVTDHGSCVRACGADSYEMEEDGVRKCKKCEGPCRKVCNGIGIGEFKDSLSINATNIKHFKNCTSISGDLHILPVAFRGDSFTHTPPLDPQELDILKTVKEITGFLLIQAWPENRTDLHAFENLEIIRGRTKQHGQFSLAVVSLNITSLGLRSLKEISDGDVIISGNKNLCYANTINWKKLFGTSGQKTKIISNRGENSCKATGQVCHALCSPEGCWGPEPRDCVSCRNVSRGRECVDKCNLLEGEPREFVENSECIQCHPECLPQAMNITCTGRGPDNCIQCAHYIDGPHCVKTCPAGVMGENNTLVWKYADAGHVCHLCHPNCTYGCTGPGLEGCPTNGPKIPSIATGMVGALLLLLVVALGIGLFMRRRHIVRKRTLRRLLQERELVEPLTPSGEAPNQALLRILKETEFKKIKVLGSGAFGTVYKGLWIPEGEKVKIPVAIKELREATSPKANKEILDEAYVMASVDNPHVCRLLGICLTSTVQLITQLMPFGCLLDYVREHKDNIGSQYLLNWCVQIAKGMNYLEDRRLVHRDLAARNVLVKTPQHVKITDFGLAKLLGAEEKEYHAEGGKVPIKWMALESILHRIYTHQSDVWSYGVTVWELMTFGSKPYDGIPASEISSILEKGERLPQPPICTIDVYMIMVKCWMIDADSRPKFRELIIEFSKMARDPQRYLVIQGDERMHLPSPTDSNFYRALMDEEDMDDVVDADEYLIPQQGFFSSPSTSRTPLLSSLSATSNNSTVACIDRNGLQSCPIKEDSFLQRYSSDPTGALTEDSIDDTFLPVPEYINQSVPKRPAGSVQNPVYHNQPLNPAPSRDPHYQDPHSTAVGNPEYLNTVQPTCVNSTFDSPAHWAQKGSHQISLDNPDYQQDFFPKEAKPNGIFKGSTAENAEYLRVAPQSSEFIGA
Method: as §1, §2

BMPR1b = target: T3, BMPR1b (Homo sapiens, UniProt O00238); experiment: KINOMEscan; type: binding; conditions: read-out: Remaining enzyme activity
T3 construct: purchased Ambit (DiscoverX) KINOMEscan; Cerep
Method: as §1, §2

HCK = target: T4, HCK (Homo sapiens, UniProt P08631); experiment: KINOMEscan; type: binding; conditions: read-out: Remaining enzyme activity
T4 construct: purchased Ambit (DiscoverX) KINOMEscan; Cerep
Method: as §1, §2

MINK = target: T5, MINK (Homo sapiens, UniProt Q8N4C8); experiment: KINOMEscan; type: binding; conditions: read-out: Remaining enzyme activity
T5 construct: purchased Ambit (DiscoverX) KINOMEscan; Cerep
T5 sequence (Q8N4C8 whole entry): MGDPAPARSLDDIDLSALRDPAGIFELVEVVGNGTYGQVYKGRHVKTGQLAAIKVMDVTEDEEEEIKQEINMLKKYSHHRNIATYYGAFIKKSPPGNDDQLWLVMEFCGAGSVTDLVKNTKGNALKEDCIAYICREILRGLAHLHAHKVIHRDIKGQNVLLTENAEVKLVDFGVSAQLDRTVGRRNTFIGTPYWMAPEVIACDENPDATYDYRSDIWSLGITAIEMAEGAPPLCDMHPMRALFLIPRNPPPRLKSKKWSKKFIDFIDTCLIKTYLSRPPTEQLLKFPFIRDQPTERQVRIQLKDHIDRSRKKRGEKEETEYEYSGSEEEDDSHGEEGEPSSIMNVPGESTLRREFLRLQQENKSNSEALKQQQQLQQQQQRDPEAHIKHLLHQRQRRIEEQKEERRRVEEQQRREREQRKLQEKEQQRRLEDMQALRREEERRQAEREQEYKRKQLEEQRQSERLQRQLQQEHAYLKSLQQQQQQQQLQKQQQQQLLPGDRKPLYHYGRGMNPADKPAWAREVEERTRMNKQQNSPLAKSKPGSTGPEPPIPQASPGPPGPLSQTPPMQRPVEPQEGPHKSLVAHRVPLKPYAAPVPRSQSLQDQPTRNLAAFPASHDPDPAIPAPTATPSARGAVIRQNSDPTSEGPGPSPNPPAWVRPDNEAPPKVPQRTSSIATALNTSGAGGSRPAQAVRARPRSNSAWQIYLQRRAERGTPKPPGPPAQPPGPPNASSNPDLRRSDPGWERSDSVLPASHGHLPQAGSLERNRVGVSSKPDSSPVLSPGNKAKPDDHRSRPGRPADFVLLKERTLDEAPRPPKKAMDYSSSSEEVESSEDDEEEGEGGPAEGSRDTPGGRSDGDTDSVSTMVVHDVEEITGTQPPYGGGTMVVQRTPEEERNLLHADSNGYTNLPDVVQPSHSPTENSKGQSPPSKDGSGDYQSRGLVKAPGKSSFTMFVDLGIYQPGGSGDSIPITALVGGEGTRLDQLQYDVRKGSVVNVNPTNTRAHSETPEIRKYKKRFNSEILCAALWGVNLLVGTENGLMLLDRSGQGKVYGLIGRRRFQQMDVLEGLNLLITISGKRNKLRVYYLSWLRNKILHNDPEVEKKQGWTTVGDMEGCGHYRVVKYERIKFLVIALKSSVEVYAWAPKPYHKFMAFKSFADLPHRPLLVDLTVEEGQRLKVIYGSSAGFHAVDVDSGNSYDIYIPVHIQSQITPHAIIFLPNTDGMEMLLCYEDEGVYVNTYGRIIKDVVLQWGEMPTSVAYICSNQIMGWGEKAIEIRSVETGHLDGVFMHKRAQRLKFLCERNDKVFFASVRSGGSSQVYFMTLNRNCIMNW
Method: as §1, §2

LIMK2 = target: T6, LIMK2 (Homo sapiens, UniProt P53671); experiment: KINOMEscan; type: binding; conditions: read-out: Remaining enzyme activity
T6 construct: purchased Ambit (DiscoverX) KINOMEscan; Cerep
Method: as §1, §2

PIM1 = target: T7, PIM1 (Homo sapiens, UniProt P11309); experiment: KINOMEscan; type: binding; conditions: read-out: Remaining enzyme activity
T7 construct: purchased Ambit (DiscoverX) KINOMEscan; Cerep
T7 sequence (P11309 whole entry): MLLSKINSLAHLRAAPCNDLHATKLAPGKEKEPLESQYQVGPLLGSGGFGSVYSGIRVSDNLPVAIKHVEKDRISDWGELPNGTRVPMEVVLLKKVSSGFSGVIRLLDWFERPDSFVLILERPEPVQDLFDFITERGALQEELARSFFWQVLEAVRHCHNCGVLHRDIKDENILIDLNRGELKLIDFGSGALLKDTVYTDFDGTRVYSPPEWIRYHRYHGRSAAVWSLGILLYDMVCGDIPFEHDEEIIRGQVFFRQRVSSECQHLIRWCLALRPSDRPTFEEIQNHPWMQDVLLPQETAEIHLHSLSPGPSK
Method: as §1, §2

[1] = target: T8, JAK1(JH2domain-pseudokinase) (Homo sapiens, UniProt P23458); experiment: KINOMEscan; type: binding; conditions: read-out: Remaining enzyme activity
T8 construct: JAK1(JH2domain-pseudokinase); purchased Ambit (DiscoverX) KINOMEscan; Cerep
T8 sequence (P23458 583-855 limits assumed): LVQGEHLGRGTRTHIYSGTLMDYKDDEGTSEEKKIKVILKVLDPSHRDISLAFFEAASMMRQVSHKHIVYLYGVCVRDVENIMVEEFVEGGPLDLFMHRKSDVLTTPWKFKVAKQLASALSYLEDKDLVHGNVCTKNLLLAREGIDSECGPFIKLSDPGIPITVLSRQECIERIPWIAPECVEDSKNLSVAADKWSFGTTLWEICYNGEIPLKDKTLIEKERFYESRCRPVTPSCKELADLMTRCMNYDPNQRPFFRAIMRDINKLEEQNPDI
Method: as §1, §2

PDPK1 = target: T9, PDPK1 (Homo sapiens, UniProt O15530); experiment: KINOMEscan; type: binding; conditions: read-out: Remaining enzyme activity
T9 construct: purchased Ambit (DiscoverX) KINOMEscan; Cerep
Method: as §1, §2

MRCKB = target: T10, MRCKB (Homo sapiens, UniProt Q9Y5S2); experiment: KINOMEscan; type: binding; conditions: read-out: Remaining enzyme activity
T10 construct: purchased Ambit (DiscoverX) KINOMEscan; Cerep
Method: as §1, §2

VEGFR2 = target: T11, VEGFR2 (Homo sapiens, UniProt P35968); experiment: KINOMEscan; type: binding; conditions: read-out: Remaining enzyme activity
T11 construct: purchased Ambit (DiscoverX) KINOMEscan; Cerep
Method: as §1, §2

TAOK1 = target: T12, TAOK1 (Homo sapiens, UniProt Q7L7X3); experiment: KINOMEscan; type: binding; conditions: read-out: Remaining enzyme activity
T12 construct: purchased Ambit (DiscoverX) KINOMEscan; Cerep
Method: as §1, §2

MST1R = target: T13, MST1R (Homo sapiens, UniProt Q04912); experiment: KINOMEscan; type: binding; conditions: read-out: Remaining enzyme activity
T13 construct: purchased Ambit (DiscoverX) KINOMEscan; Cerep
Method: as §1, §2

TRKc = target: T14, TRKc (Homo sapiens, UniProt Q16288); experiment: KINOMEscan; type: binding; conditions: read-out: Remaining enzyme activity
T14 construct: purchased Ambit (DiscoverX) KINOMEscan; Cerep
Method: as §1, §2

CDK11 = target: T15, CDK11 (Homo sapiens, UniProt Q9BWU1); experiment: KINOMEscan; type: binding; conditions: read-out: Remaining enzyme activity
T15 construct: purchased Ambit (DiscoverX) KINOMEscan; Cerep
T15 sequence (Q9BWU1 whole entry): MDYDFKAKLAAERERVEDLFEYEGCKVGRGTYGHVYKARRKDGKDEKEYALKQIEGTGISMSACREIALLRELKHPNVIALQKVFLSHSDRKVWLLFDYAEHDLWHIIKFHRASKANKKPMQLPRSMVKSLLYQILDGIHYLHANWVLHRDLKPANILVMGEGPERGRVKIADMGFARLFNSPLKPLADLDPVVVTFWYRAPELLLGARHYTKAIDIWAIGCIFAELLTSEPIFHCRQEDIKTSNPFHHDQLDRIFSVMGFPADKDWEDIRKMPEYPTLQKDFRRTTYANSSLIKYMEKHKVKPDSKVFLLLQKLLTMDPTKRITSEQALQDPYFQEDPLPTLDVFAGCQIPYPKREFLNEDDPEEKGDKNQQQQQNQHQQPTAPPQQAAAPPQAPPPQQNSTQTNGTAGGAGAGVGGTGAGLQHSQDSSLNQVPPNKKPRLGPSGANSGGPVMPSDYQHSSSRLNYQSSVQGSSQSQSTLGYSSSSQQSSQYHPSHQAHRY
Method: as §1, §2

RRET(V804L) = target: T16, RRET(V804L) (Homo sapiens, UniProt P07949, V804L); experiment: KINOMEscan; type: binding; conditions: read-out: Remaining enzyme activity
T16 construct: purchased Ambit (DiscoverX) KINOMEscan; Cerep
T16 sequence (P07949 29-1114 V804L): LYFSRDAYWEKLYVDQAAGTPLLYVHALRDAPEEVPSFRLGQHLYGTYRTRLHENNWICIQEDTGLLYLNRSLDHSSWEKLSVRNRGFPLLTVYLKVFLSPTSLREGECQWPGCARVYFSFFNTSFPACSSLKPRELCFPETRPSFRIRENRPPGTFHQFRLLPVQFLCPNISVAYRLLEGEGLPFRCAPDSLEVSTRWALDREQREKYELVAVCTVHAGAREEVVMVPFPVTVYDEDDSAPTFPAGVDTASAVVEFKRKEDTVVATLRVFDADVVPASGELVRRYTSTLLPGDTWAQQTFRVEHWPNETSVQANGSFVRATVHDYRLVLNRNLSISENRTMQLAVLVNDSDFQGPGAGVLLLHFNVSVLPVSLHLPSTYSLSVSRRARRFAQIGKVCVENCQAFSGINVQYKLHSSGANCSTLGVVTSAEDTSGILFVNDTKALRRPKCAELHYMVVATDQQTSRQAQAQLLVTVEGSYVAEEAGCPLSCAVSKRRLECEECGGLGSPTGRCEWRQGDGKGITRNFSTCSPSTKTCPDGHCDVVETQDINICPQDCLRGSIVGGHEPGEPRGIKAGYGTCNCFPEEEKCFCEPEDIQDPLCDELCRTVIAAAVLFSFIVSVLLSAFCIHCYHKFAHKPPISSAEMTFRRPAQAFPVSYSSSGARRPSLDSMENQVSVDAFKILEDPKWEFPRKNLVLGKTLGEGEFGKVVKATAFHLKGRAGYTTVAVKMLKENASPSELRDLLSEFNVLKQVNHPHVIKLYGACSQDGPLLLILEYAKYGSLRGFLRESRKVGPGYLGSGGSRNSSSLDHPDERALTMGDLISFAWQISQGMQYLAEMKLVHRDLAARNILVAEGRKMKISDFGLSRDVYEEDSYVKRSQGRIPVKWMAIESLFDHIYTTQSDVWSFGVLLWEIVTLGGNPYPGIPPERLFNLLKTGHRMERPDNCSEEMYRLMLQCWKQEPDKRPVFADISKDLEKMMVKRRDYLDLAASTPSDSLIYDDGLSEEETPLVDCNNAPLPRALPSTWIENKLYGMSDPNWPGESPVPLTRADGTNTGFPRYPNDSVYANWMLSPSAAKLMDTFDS
Method: as §1, §2

[2] = target: T17, RPS6KA4(Kin.Dom.1-N-term) (Homo sapiens, UniProt O75676); experiment: KINOMEscan; type: binding; conditions: read-out: Remaining enzyme activity
T17 construct: RPS6KA4(Kin.Dom.1-N-term); purchased Ambit (DiscoverX) KINOMEscan; Cerep
Method: as §1, §2

CHEK2 = target: T18, CHEK2 (Homo sapiens, UniProt O96017); experiment: KINOMEscan; type: binding; conditions: read-out: Remaining enzyme activity
T18 construct: purchased Ambit (DiscoverX) KINOMEscan; Cerep
Method: as §1, §2

SIK2 = target: T19, SIK2 (Homo sapiens, UniProt Q9H0K1); experiment: KINOMEscan; type: binding; conditions: read-out: Remaining enzyme activity
T19 construct: purchased Ambit (DiscoverX) KINOMEscan; Cerep
Method: as §1, §2

SRPK2 = target: T20, SRPK2 (Homo sapiens, UniProt P78362); experiment: KINOMEscan; type: binding; conditions: read-out: Remaining enzyme activity
T20 construct: purchased Ambit (DiscoverX) KINOMEscan; Cerep
Method: as §1, §2

CLK3 = target: T21, CLK3 (Homo sapiens, UniProt P49761); experiment: KINOMEscan; type: binding; conditions: read-out: Remaining enzyme activity
T21 construct: purchased Ambit (DiscoverX) KINOMEscan; Cerep
Method: as §1, §2

ERBB2 = target: T22, ERBB2 (Homo sapiens, UniProt P04626); experiment: KINOMEscan; type: binding; conditions: read-out: Remaining enzyme activity
T22 construct: purchased Ambit (DiscoverX) KINOMEscan; Cerep
Method: as §1, §2

PIK3CA(H1047Y) = target: T23, PIK3CA(H1047Y) (Homo sapiens, UniProt P42336, H1047Y); experiment: KINOMEscan; type: binding; conditions: read-out: Remaining enzyme activity
T23 construct: purchased Ambit (DiscoverX) KINOMEscan; Cerep
Method: as §1, §2

FLT3 = target: T24, FLT3 (Homo sapiens, UniProt P36888); experiment: KINOMEscan; type: binding; conditions: read-out: Remaining enzyme activity
T24 construct: purchased Ambit (DiscoverX) KINOMEscan; Cerep
Method: as §1, §2

CSNK1g3 = target: T25, CSNK1g3 (Homo sapiens, UniProt Q9Y6M4); experiment: KINOMEscan; type: binding; conditions: read-out: Remaining enzyme activity
T25 construct: purchased Ambit (DiscoverX) KINOMEscan; Cerep
Method: as §1, §2

AURKB = target: T26, AURKB (Homo sapiens, UniProt Q96GD4); experiment: KINOMEscan; type: binding; conditions: read-out: Remaining enzyme activity
T26 construct: purchased Ambit (DiscoverX) KINOMEscan; Cerep
Method: as §1, §2

[3] = target: T27, RPS6KA6(Kin.Dom.2-C-term) (Homo sapiens, UniProt Q9UK32); experiment: KINOMEscan; type: binding; conditions: read-out: Remaining enzyme activity
T27 construct: RPS6KA6(Kin.Dom.2-C-term); purchased Ambit (DiscoverX) KINOMEscan; Cerep
Method: as §1, §2

ADCK4 = target: T28, ADCK4 (Homo sapiens, UniProt Q96D53); experiment: KINOMEscan; type: binding; conditions: read-out: Remaining enzyme activity
T28 construct: purchased Ambit (DiscoverX) KINOMEscan; Cerep
Method: as §1, §2

EGFR(G719S) = target: T29, EGFR(G719S) (Homo sapiens, UniProt P00533, G719S); experiment: KINOMEscan; type: binding; conditions: read-out: Remaining enzyme activity
T29 construct: purchased Ambit (DiscoverX) KINOMEscan; Cerep
Method: as §1, §2

SgK110 = target: T30, SgK110 (Homo sapiens, UniProt P0C264); experiment: KINOMEscan; type: binding; conditions: read-out: Remaining enzyme activity
T30 construct: purchased Ambit (DiscoverX) KINOMEscan; Cerep
T30 sequence (P0C264 whole entry): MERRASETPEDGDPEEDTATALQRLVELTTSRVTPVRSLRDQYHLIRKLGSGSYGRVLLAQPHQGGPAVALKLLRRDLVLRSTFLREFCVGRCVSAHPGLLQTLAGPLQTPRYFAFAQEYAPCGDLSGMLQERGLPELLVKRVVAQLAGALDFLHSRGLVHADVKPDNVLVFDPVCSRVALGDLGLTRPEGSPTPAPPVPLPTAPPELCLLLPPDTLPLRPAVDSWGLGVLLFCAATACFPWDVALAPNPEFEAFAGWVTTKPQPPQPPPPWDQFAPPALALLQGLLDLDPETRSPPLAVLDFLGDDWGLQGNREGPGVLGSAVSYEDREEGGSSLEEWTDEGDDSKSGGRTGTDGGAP
Method: as §1, §2

FRK = target: T31, FRK (Homo sapiens, UniProt P42685); experiment: KINOMEscan; type: binding; conditions: read-out: Remaining enzyme activity
T31 construct: purchased Ambit (DiscoverX) KINOMEscan; Cerep
Method: as §1, §2

P. falciparum strain 3D7 = experiment: Efficacy in the Pf/NSG mouse model; type: in vivo, Plasmodium falciparum; conditions: 3D7, humanized NSG mouse

`CCCCN1CCN(C(=N)c2cccc(NC(=O)Nc3ccc(S(=O)(=O)NCc4ccc(S(N)(=O)=O)cc4)cc3)c2)CC1` [SC81458, 4-(3-(3-((4-butylpiperazin-1-yl)(imino)methyl)phenyl)ureido)-N-(4-sulfamoylbenzyl) benzenesulfonamide] gave a remaining binding at 10 µM (FLT3(K663Q)) of 93%, a remaining binding at 10 µM (EGFR) of 100% and a remaining binding at 10 µM (BMPR1b) of 85%. It also gave a remaining binding at 10 µM (HCK) of 100%, a remaining binding at 10 µM (MINK) of 95% and a remaining binding at 10 µM (LIMK2) of 100%. For the same compound, the remaining binding at 10 µM (PIM1) was 100%, the remaining binding at 10 µM [1] was 89% and the remaining binding at 10 µM (PDPK1) was 74%. It also gave a remaining binding at 10 µM (MRCKB) of 99%, a remaining binding at 10 µM (VEGFR2) of 84% and a remaining binding at 10 µM (TAOK1) of 100%. For the same compound, the remaining binding at 10 µM (MST1R) was 91%, the remaining binding at 10 µM (TRKc) was 100% and the remaining binding at 10 µM (CDK11) was 91%. It also gave a remaining binding at 10 µM (RRET(V804L)) of 100%, a remaining binding at 10 µM [2] of 85% and a remaining binding at 10 µM (CHEK2) of 100%. The remaining binding at 10 µM (SIK2) was 100%, the remaining binding at 10 µM (SRPK2) was 93% and the remaining binding at 10 µM (CLK3) was 100%. The remaining binding at 10 µM (ERBB2) was 100%, the remaining binding at 10 µM (PIK3CA(H1047Y)) was 100% and the remaining binding at 10 µM (FLT3) was 100%. The remaining binding at 10 µM (CSNK1g3) was 100%, the remaining binding at 10 µM (AURKB) was 78% and the remaining binding at 10 µM [3] was 100%. The remaining binding at 10 µM (ADCK4) was 100%, the remaining binding at 10 µM (EGFR(G719S)) was 100% and the remaining binding at 10 µM (SgK110) was 100%. The remaining binding at 10 µM (FRK) was 100% and the “In vivo logPRR” value (P. falciparum strain 3D7) was 3.2.
